From US20130065818A1, “Arylamide Compounds And Compositions And Uses Thereof” (POLYMEDIX, priority 2006, published 2013)
Values after ≈ are worked out from the molar mass of the structure shown. Like-named read-outs stand apart in the source and are kept apart here.

Tested on: S. aureus ATCC 27660
Experiment: MIC, control bacteria (Example 8)
Format: cell-based
Procedure: • Mueller-Hinton Broth in tubes was inoculated with 25 ocular isolates of Staphylococcus aureus fluoroquinolone-susceptible, Staphylococcus aureus fluoroquinolone-resistant, Staphylococcus epidermidis (Coagulase-negative Staphylococcus) fluoroquinolone-susceptible, Staphylococcus epidermidis (Coagulase-negative Staphylococcus) fluoroquinolone-resistant, Pseudomonas aeruginosa and Serratia marcescens, plus two controls (Staphylococcus aureus and E. coli) and incubated at 37° C. overnight on a shaker set at 250 rpm.
Control Bacteria—The two control bacteria (Staphylococcus aureus and E. coli) were treated as above.
Control Bacteria Set #1—this set of control bacteria were treated as the Streptococcus pneumoniae, Streptococcus viridans and Moraxella species (including Moraxella catarrhalis) test isolates above; the control bacteria underwent the same conditions as the test Streptococcus pneumoniae, Streptococcus viridans and Moraxella species (including Moraxella catarrhalis) isolates. This set of control bacteria was to determine whether there was a difference in the MICs by performing the MIC determinations in 2% lysed horse red blood cells with the standard method performed in Mueller-Hinton broth.
Control Bacteria Set #2—the control bacteria were added to 5 ml of Mueller-Hinton Broth without the 2% lysed horse red blood cells to achieve the standard inoculum concentration. This set of control bacteria is the normal control to determine whether the compounds are at the target MICs.
Control Bacteria Set #1—this set of control bacteria were treated as the Haemophilus influenzae test isolates above; the control bacteria underwent the same conditions as the test Haemophilus influenzae isolates. This set of control bacteria is to determine whether there was a difference in the MICs by performing the MIC determinations in HTM broth with the standard method performed in Mueller-Hinton broth.
Control Bacteria Set #2—the control bacteria were added to 5 ml of Mueller-Hinton Broth to achieve the standard inoculum concentration. This set of control bacteria is the normal control to determine whether the compounds are at the target MICs.
Ninety μl of the bacterial suspensions was dispensed in each well from column 1 to column 12. Each bacterial isolate was placed in one row of a 96 well polypropylene plate containing the test agents. The plates were placed on shaker at 15 minutes at room temperature, and then incubated at 37° C. overnight. MICs were determined visually as the lowest concentration of drug that inhibits visible bacterial growth.

[1] = Control Bacteria S. aureus ATCC 27660

Question: With `N=C(N)NCCCCC(=O)Nc1cc(C(F)(F)F)cc(NC(=O)c2cc(C(=O)Nc3cc(C(F)(F)F)cc(NC(=O)CCCCNC(=N)N)c3O[C@@H]3CCNC3)ncn2)c1O[C@@H]1CCNC1` [Oligomer 4] as the compound, how does the “Decrease of activity by addition of 2% lysed horse red blood cells to Mueller-Hinton broth” value [1] read?
Answer: approximately 4 fold

Question: What about the “Decrease of activity by use of HTM broth” value [1] of the same compound?
Answer: approximately 8 fold

Question: And the MIC (Control Bacteria Set #1, run with Haemophilus influenzae MIC test, read-out: MIC)?
Answer: 4 µg/mL (≈ 4.27 µM)

Question: What about the MIC (S. aureus ATCC 27660) of the same compound?
Answer: 0.098 µg/mL (≈ 0.105 µM)

Question: And the MIC (S. aureus ATCC 27660, Control for MIC Test SA-FQR, first batch)?
Answer: 1 µg/mL (≈ 1.07 µM)

Question: And the MIC (S. aureus ATCC 27660, Control for MIC Test SA-FQS, first batch)?
Answer: 2 µg/mL (≈ 2.13 µM)

Question: What about the MIC (S. aureus ATCC 27660, new batches, Control Only 1) of the same compound?
Answer: 0.25 µg/mL (≈ 0.267 µM)

Question: What about the MIC (S. aureus ATCC 27660, new batches, Control Only 2) of the same compound?
Answer: 0.25 µg/mL (≈ 0.267 µM)

Question: What about the MIC (S. aureus ATCC 27660, new batches, Control Only 3) of the same compound?
Answer: 0.25 µg/mL (≈ 0.267 µM)

Question: What about the MIC (S. aureus ATCC 27660, new batches, Control Only 4) of the same compound?
Answer: 0.5 µg/mL (≈ 0.534 µM)

Question: What about the MIC (Staphylococcus aureus, ATCC27660, Control Bacteria Set #1, run with Moraxella MIC test, read-out: MIC) of the same compound?
Answer: 1 µg/mL (≈ 1.07 µM)

Question: And the MIC (Staphylococcus aureus, ATCC27660, Control Only 1, read-out: MIC of control bacteria on day of MIC testing)?
Answer: 0.25 µg/mL

Question: And the MIC (Staphylococcus aureus, ATCC27660, Control Only 2, read-out: MIC of control bacteria on day of MIC testing)?
Answer: 0.25 µg/mL

Question: And the MIC (Staphylococcus aureus, ATCC27660, Control Only 3, read-out: MIC of control bacteria on day of MIC testing)?
Answer: 0.25 µg/mL

Question: What about the MIC (Staphylococcus aureus, ATCC27660, Control Only 4, read-out: MIC of control bacteria on day of MIC testing) of the same compound?
Answer: 0.5 µg/mL

Question: And the MIC (Staphylococcus aureus, ATCC27660, S. aureus ATCC 27660, Control Bacteria Set #1 (same conditions as test isolates), run with Streptococcus pneumoniae MIC test, read-out: MIC)?
Answer: 1 µg/mL (≈ 1.07 µM)

Question: And the MIC (Staphylococcus aureus, ATCC27660, S. aureus ATCC 27660, Control Bacteria Set #1 (same conditions as test isolates), run with Streptococcus viridans group MIC test, read-out: MIC)?
Answer: 2 µg/mL (≈ 2.13 µM)

Question: What about the MIC (Staphylococcus aureus, ATCC27660, S. aureus ATCC 27660, Control Bacteria Set #2 (Mueller-Hinton Broth), run with Streptococcus pneumoniae MIC test, read-out: MIC) of the same compound?
Answer: 0.25 µg/mL (≈ 0.267 µM)

Question: And the MIC (Staphylococcus aureus, ATCC27660, S. aureus ATCC 27660, Control Bacteria Set #2 (Mueller-Hinton Broth), run with Streptococcus viridans group MIC test, read-out: MIC)?
Answer: 1 µg/mL (≈ 1.07 µM)

Question: And the MIC (Staphylococcus aureus, ATCC27660, S. aureus ATCC 27660, control bacteria run with Pseudomonas aeruginosa MIC test, read-out: MIC)?
Answer: 0.5 µg/mL (≈ 0.534 µM)

Question: And the MIC (Staphylococcus aureus, ATCC27660, S. aureus ATCC 27660, control bacteria run with S. aureus fluoroquinolone-resistant MIC test, read-out: MIC)?
Answer: 1 µg/mL (≈ 1.07 µM)

Question: And the MIC (Staphylococcus aureus, ATCC27660, S. aureus ATCC 27660, control bacteria run with S. aureus fluoroquinolone-susceptible MIC test, read-out: MIC)?
Answer: 2 µg/mL (≈ 2.13 µM)

Question: And the MIC (Staphylococcus aureus, ATCC27660, S. aureus ATCC 27660, control bacteria run with S. epidermidis fluoroquinolone-resistant MIC test, read-out: MIC)?
Answer: 0.25 µg/mL (≈ 0.267 µM)

Question: And the MIC (Staphylococcus aureus, ATCC27660, S. aureus ATCC 27660, control bacteria run with S. epidermidis fluoroquinolone-susceptible MIC test, read-out: MIC)?
Answer: 0.25 µg/mL (≈ 0.267 µM)

Question: And the MIC (Staphylococcus aureus, ATCC27660, S. aureus ATCC 27660, control bacteria run with Serratia marcescens MIC test, read-out: MIC)?
Answer: 0.25 µg/mL (≈ 0.267 µM)

Question: What about the MIC (Staphylococcus aureus, ATCC27660, S. aureus ATCC 27660, MIC previously obtained (target MIC), printed in parentheses, read-out: MIC for Control Bacteria within the parentheses) of the same compound?
Answer: 0.098 µg/mL (≈ 0.105 µM)

Question: And the MIC (Staphylococcus aureus, ATCC27660, S. aureus ATCC27660, read-out: MIC)?
Answer: 0.098 µg/mL (≈ 0.105 µM)

Question: What about the MIC (Staphylococcus aureus, ATCC27660, control for MIC test HI (Control Bacteria Set #2), read-out: MIC of control bacteria on day of MIC testing) of the same compound?
Answer: 0.5 µg/mL

Question: And the MIC (Staphylococcus aureus, ATCC27660, control for MIC test MS (Control Bacteria Set #2), read-out: MIC of control bacteria on day of MIC testing)?
Answer: 0.5 µg/mL

Question: And the MIC (Staphylococcus aureus, ATCC27660, control for MIC test PA, read-out: MIC of control bacteria on day of MIC testing)?
Answer: 0.5 µg/mL

Question: And the MIC (Staphylococcus aureus, ATCC27660, control for MIC test SA-FQR, read-out: MIC of control bacteria on day of MIC testing)?
Answer: 1 µg/mL

Question: What about the MIC (Staphylococcus aureus, ATCC27660, control for MIC test SA-FQS, read-out: MIC of control bacteria on day of MIC testing) of the same compound?
Answer: 2 µg/mL

Question: And the MIC (Staphylococcus aureus, ATCC27660, control for MIC test SE-FQR, read-out: MIC of control bacteria on day of MIC testing)?
Answer: 0.25 µg/mL

Question: And the MIC (Staphylococcus aureus, ATCC27660, control for MIC test SE-FQS, read-out: MIC of control bacteria on day of MIC testing)?
Answer: 0.25 µg/mL

Question: What about the MIC (Staphylococcus aureus, ATCC27660, control for MIC test SM, read-out: MIC of control bacteria on day of MIC testing) of the same compound?
Answer: 0.25 µg/mL

Question: What about the MIC (Staphylococcus aureus, ATCC27660, control for MIC test SP, read-out: MIC of control bacteria on day of MIC testing) of the same compound?
Answer: 0.25 µg/mL

Question: What about the MIC (Staphylococcus aureus, ATCC27660, control for MIC test SV, read-out: MIC of control bacteria on day of MIC testing) of the same compound?
Answer: 1 µg/mL

Question: And the MIC (Staphylococcus aureus, ATCC27660, reference MIC printed in parentheses beside the day's control value, read-out: MIC for Control Bacteria (within the parentheses))?
Answer: 0.098 µg/mL (≈ 0.105 µM)
